Assay results as given in US20200038399A1, “FORMULATIONS, METHODS, KIT, AND DOSAGE FORMS FOR TREATING BACTERIAL INFECTION” (Motif BioSciences Inc., priority 2016, published 2020).

Assays:
S. aureus 101 [1] = assay: MIC determination; format: cell-based, Staphylococcus aureus; details: Staphylococcus aureus, 101, 18 h; read-out: Minimum inhibitory concentrations (MIC)
Protocol: (§1) Minimum inhibitory concentration (MIC) determination.
(§2) In order to choose the appropriate concentrations to be tested in the checkerboard experiments, minimum inhibitory concentrations (MICs) were determined first. […] Table 6) in microtiter plates. Stock solutions (10 mg/ml) of reference antibiotics were prepared in DMSO (except for tobramycin, gentamicin, lomefloxacin, tetracycline) and stored at 4° C. The bacteria were grown in Mueller-Hinton Broth (BBL Mueller-Hinton Broth II, cation adjusted). S. pneumoniae was grown in Mueller-Hinton Broth supplemented with 5% (v/v) lysed sheep blood. For the growth of H. influenzae HTM (Haemophilus test medium) was used containing Mueller-Hinton broth, yeast extract ([…], Difco) and supplemented with NAD and hematin (HTM Supplement, Oxoid SR0158E). M. catarrhalis was grown in Brain Heart Infusion medium (Oxoid). The bacteria were incubated for 18 hours at 37° C. in ambient air except for S. pneumoniae, H. influenzae and M. catarrhalis, which were incubated in the presence of 5% CO2. The MIC was determined as the lowest concentration of an individual drug that lead to no visible growth.

S. pneumoniae 1/1 [2] = assay: checkerboard synergy assay with iclaprim; format: cell-based, Streptococcus pneumoniae; details: antibiotic in combination with iclaprim
Protocol: (§3) The synergistic potential of iclaprim against Gram-positive and Gram-negative bacteria was determined using the checkerboard assay as described in Eliopoulos GM and Moellering, Jr. RC (1991), Antimicrobial combinations, pp. 432-492, in V. Lorian (ed.), Antibiotics in laboratory medicine, 3rd Ed., The Williams & Wilkins Co., Baltimore, the entire disclosure of which is herein incorporated by reference, allowing multiple test concentrations of iclaprim to be assayed in the presence of various concentrations of the other antibiotic in microtiter plates. The same growth media and conditions were used as described in 3.2 below.
(§4) Two different dilutions were used for iclaprim depending on the MIC determined for the bacterium. […] Iclaprim and the other antibiotic being tested were also dispensed alone in the last row and in the last column, respectively, as controls.
(§5) The Fractional Inhibitory Concentrations (FIC) for each added agent were calculated and used to determine the sum of FIC (ΣFIC) indicative of the synergistic potential of a given combination as described in Veyssier P. (1999), Inhibiteurs de la dihydrofolate reductase, nitrohétérocycles (furanes) et 8-hydroxyquinoleines, pp. 995-1027, in A. Bryskier (ed.), Antibiotiques agents antibatériens et antifongiques, 1st Ed., Ellipses Edition Marketing SA, Paris, the entire disclosure of which is herein incorporated by reference. Synergy was defined whereby the ΣFIC was <0.5, indifference (no synergy nor antagonism) whereby ΣFIC was ≥0.5 but ≤4, and antagonism whereby ΣFIC was >4. Additivity as a special form of indifference was defined whereby the ΣFIC was ≥0.5 but <1, for example as described in Stevens, D L et al. (1998), In vitro antimicrobial effects of various combinations of penicillin and clindamycin against four strains of Streptococcus pyogenes, J. Antimicrob. Chemother. 42: 1266-1268, the entire disclosure of which is herein incorporated by reference.

S. pneumoniae 1/1 [3] = assay: MIC determination; format: cell-based, Streptococcus pneumoniae; details: Streptococcus pneumoniae; S. pneumoniae 1/1; 18 hours at 37° C., 5% CO2; read-out: Minimum inhibitory concentrations (MIC)
Protocol: as §1, §2

[4] = test system: Haemophilus influenzae ATCC 49766; assay: checkerboard synergy assay with iclaprim; format: cell-based; details: antibiotic in combination with iclaprim; H. influenzae 49766
Protocol: as §3, §4, §5

[5] = test system: Staphylococcus aureus ATCC 25923; assay: checkerboard synergy assay with iclaprim; format: cell-based; details: antibiotic in combination with iclaprim; S. aureus 25923
Protocol: as §3, §4, §5

[6] = test system: Moraxella catarrhalis RA 21; assay: checkerboard synergy assay with iclaprim; format: cell-based; details: antibiotic in combination with iclaprim; M. catarrhalis RA 21
Protocol: as §3, §4, §5

[7] = test system: Klebsiella pneumoniae ATCC 33495; assay: checkerboard synergy assay with iclaprim; format: cell-based; details: antibiotic in combination with iclaprim; K. pneumoniae 33495
Protocol: as §3, §4, §5

[8] = test system: Streptococcus pneumoniae ATCC 49619; assay: checkerboard synergy assay with iclaprim; format: cell-based; details: antibiotic in combination with iclaprim; S. pneumoniae 49619
Protocol: as §3, §4, §5

S. aureus 101 [9] = assay: checkerboard synergy assay with iclaprim; format: cell-based, Staphylococcus aureus; details: antibiotic in combination with iclaprim
Protocol: as §3, §4, §5

[10] = test system: Haemophilus influenzae ATCC 49766; assay: MIC determination; format: cell-based; details: Haemophilus influenzae, ATCC49766; H. Influenza 49766; 18 hours at 37° C., 5% CO2; read-out: Minimum inhibitory concentrations (MIC)
Protocol: as §1, §2

[11] = test system: Staphylococcus aureus ATCC 25923; assay: MIC determination; format: cell-based; details: Staphylococcus aureus, ATCC25923; S. aureus 25923; 18 hours at 37° C.; read-out: Minimum inhibitory concentrations (MIC)
Protocol: as §1, §2

[12] = test system: Moraxella catarrhalis RA 21; assay: MIC determination; format: cell-based; details: Moraxella catarrhalis, RA21; M. catarrhalis RA 21; 18 hours at 37° C., 5% CO2; read-out: Minimum inhibitory concentrations (MIC)
Protocol: as §1, §2

[13] = test system: Klebsiella pneumoniae ATCC 33495; assay: MIC determination; format: cell-based; details: Klebsiella pneumoniae, ATCC33495; K. pneumonia 33495; 18 hours at 37° C.; read-out: Minimum inhibitory concentrations (MIC)
Protocol: as §1, §2

[14] = test system: Streptococcus pneumoniae ATCC 49619; assay: MIC determination; format: cell-based; details: Streptococcus pneumoniae, ATCC49619; S. pneumoniae 49619; 18 hours at 37° C., 5% CO2; read-out: Minimum inhibitory concentrations (MIC)
Protocol: as §1, §2

Row | Structure (SMILES) | MIC (S. aureus 101 [1]) [µg/mL] | Σ FIC (S. pneumoniae 1/1 [2]) | MIC (S. pneumoniae 1/1 [3]) [µg/mL] | Con (Conclusion) [4] | Σ FIC [4] | Σ FIC [5] | Con (Conclusion) [6] | Σ FIC [6] | Con (Conclusion) [7] | Σ FIC [7] | Σ FIC [8] | Σ FIC (S. aureus 101 [9]) | MIC [10] [µg/mL] | MIC [11] [µg/mL] | MIC [12] [µg/mL] | MIC [13] [µg/mL] | MIC [14] [µg/mL]
1 | CCN1CCN(C(=O)N[C@@H](C(=O)N[C@@H]2C(=O)N3[C@@H]2SC(C)(C)[C@@H]3C(=O)O)c2ccccc2)C(=O)C1=O [Piperacillin] | > 128 | 0.63-1.13 | 8 | Ad (Additivity (Ad)) | 0.54-1.25 | 1.06-1.50 | Ind (Indifference (Ind)) | 1.03-1.50 | Ad (Additivity (Ad)) | 0.53-1.25 | 1.02-1.50 | 1.01-1.50 | 0.031 | 0.5 | 0.25 | 32 | 2
2 | NC[C@H]1O[C@H](O[C@H]2[C@H](O)[C@@H](O[C@H]3O[C@H](CO)[C@@H](O)[C@H](N)[C@H]3O)[C@H](N)C[C@@H]2N)[C@H](O)[C@@H](O)[C@@H]1O [Kanamycin] | > 128 | 1.02-1.50 | 128 | Ind (Indifference (Ind)) | 1.02-1.13 | 1.06-1.50 | Ind (Indifference (Ind)) | 1.00-1.25 | Ad (Additivity (Ad)) | 0.63-0.75 | 1.00-1.25 | 1.01-1.50 | 2 | 2 | 4 | 4 | 32
3 | C[C@H]1c2cccc(O)c2C(=O)C2=C(O)[C@]3(O)C(=O)C(C(N)=O)=C(O)[C@@H](N(C)C)[C@@H]3[C@@H](O)[C@@H]21 [Doxycycline] | 16 | 1.25-1.50 | 2 | Ind (Indifference (Ind)) | 1.00-1.00 | 1.02-1.50 | Ind (Indifference (Ind)) | 1.02-1.50 | Ind (Indifference (Ind)) | 1.01-1.50 | 1.02-1.51 | 1.06-1.50 | 0.5 | 0.5 | 0.5 | > 128 | 0.5
4 | CC1(C)S[C@@H]2[C@H](NC(=O)[C@H](N)c3ccccc3)C(=O)N2[C@H]1C(=O)O [Ampicillin] | > 128 |  | 16 | Ind (Indifference (Ind)) | 1.13-1.50 | 1.00-1.00 | Ind (Indifference (Ind)) |  | Ad (Additivity (Ad)) |  |  |  | 1 | 0.5 | 16 | > 128 | 0.5
5 | NC(=O)c1cc[n+](CC2=C(C(=O)O)N3C(=O)[C@@H](NC(=O)[C@@H](c4ccccc4)S(=O)(=O)[O-])[C@H]3SC2)cc1 [Cefsulodine, Cefsulodin] | 64 | 1.01-1.50 | > 128 | Ind (Indifference (Ind)) | 1.01-1.50 | 1.00-1.25 | Ind (Indifference (Ind)) | 1.00-1.25 | Ind (Indifference (Ind)) | 1.01-1.50 | 1.13-1.50 | 1.00-1.25 | > 128 | 64 | > 128 | > 128 | 16
6 | Cc1onc(-c2ccccc2)c1C(=O)N[C@@H]1C(=O)N2[C@@H]1SC(C)(C)[C@@H]2C(=O)O [Oxacillin] | 8 | 1.06-1.50 | 32 | Ind (Indifference (Ind)) | 1.00-1.25 | 1.06-1.50 | Ind (Indifference (Ind)) | 1.06-1.50 | Ind (Indifference (Ind)) | 1.01-1.50 | 1.06-1.50 | 1.00-1.25 | 16 | 0.125 | 32 | > 128 | 2
7 | CO[C@H]1/C=C/O[C@@]2(C)Oc3c(C)c(O)c4c(O)c(c(/C=N/N5CCN(C)CC5)c(O)c4c3C2=O)NC(=O)/C(C)=C\C=C\[C@H](C)[C@H](O)[C@@H](C)[C@@H](O)[C@@H](C)[C@H](OC(C)=O)[C@@H]1C [Rifampicin] | 0.031 | 0.56-1.12 | 0.063 | Ind (Indifference (Ind)) | 1.12-1.50 |  | Ad (Additivity (Ad)) | 0.75-1.12 | Ind (Indifference (Ind)) | 1.01-1.50 | 0.75-0.76 |  | 0.063 | 0.031 | 0.063 | > 128 | 0.031
8 | O=C(N[C@H](CO)[C@H](O)c1ccc([N+](=O)[O-])cc1)C(Cl)Cl [Chloramphenicol] | 64 |  | 16 | Ind (Indifference (Ind)) | 1.06-1.50 | 1.13-2.50 | Ind (Indifference (Ind)) | 1.25-1.50 | Ind (Indifference (Ind)) | 1.01-1.50 | 0.75-1.25 | 0.63-1.13 | 0.5 | 8 | 0.5 | > 128 | 4
9 | CO/N=C(\C(=O)N[C@@H]1C(=O)N2C(C(=O)O)=C(COC(C)=O)CS[C@H]12)c1csc(N)n1 [Cefotaxime] | 32 | 0.63-1.06 | 8 | Ad (Additivity (Ad)) |  | 1.03-1.50 | Ad (Additivity (Ad)) | 0.56-1.03 | Ind (Indifference (Ind)) | 1.13-1.50 |  | 1.06-1.50 | 0.063 | 4 | 4 | 0.5 | 0.25
